Melting point data for eight compounds are collected here from patent US6696439B1, “5-HT1F agonists” (Eli Lilly and Company, priority 1999, dated 2004).

Take `Cc1oc2ccc(NC(=O)c3ccccc3)nc2c1CCN(C)C`: the melting point fell in the range of 119 to 120 °C. Compound `Cc1oc2ccc(NC(=O)c3cccs3)nc2c1CCN(C)C.O=C(O)C(=O)O` came in with a melting point of 211 to 212 °C. `CN(C)CCc1coc2ccc(NC(=O)c3ccccc3)nc12.O=C(O)C(=O)O` displayed a melting point of 65 to 66 °C. `CCC(=O)Nc1ccc2occ(CCN(C)C)c2n1.O=C(O)C(=O)O` returned a melting point of 153 to 155 °C. To `Cc1oc2ccc(NC(=O)c3ccc(F)cc3)nc2c1CCN(C)C.O=C(O)C(=O)O` belongs 136 to 138 °C; to `CCC(=O)Nc1ccc2oc(C)c(CCN(C)C)c2n1.O=C(O)C(=O)O`, 168 to 170 °C. `CN(C)CCc1coc2ccc(NC(=O)c3ccc(F)cc3)nc12.O=C(O)C(=O)O` had a melting point of 124 to 126 °C. To `CN(C)CCc1coc2ccc(NC(=O)c3cccs3)nc12.O=C(O)C(=O)O` belongs 68 to 69 °C.

Broadly, the melting point is the temperature of the solid-liquid transition.
